In EP1156056A1, “5-GLYCOSYLOXY-6-HYDROXYNAPHTHO 2,3-f]QUINOLINE-7,12-DIONE HAVING ANTICANCER ACTIVITIES” (ZAIDAN HOJIN BISEIBUTSU KAGAKU KENKYU KAI, priority 1999, dated 2000):
Values after ≈ are worked out from the molar mass of the structure shown. Where two headings read alike, the source gives them in different places.

What was measured:
Type in all cases: cell-based
[1] = test system: human pulmonary carcinoma (PC6); assay: Inhibition of proliferation of cancer cells in culture (Test Example 1); conditions: 72 hours cultivation, read-out: Concentration of test compound to inhibit the proliferation of cancer cells by 50 %
Procedure: (§1) A culture medium for cancer cells was put into test tubes. To the culture medium in each tube, there was transplanted each of such various mouse cancer cells or human cancer cells as shown in Table 1 below. The cells so transplanted were cultivated under the conditions at 37°C in an air atmosphere containing 5 % CO2. To the medium containing the cancer cells so cultivated, there was added said Compounds A, B, D, E or F of this invention at different concentrations, as the test compound. […] As the comparative compound, adriamycin now clinically used was tested to repeat the test in the same way.
(§2) Namely, they are mouse colon cancer (colon 26), mouse B-cell lymphoma (LB32T), mouse lymphoma (L-1210), human cervical cancer (HeLa), human acute promyeloleukemia (HL60), human prostatic cancer (PC3), human pudendal squamous cell carcinoma (A431), human pulmonary carcinoma (PC6), human mastocarcinoma (MCF7), human esophageal carcinoma (TT), human prostatic cancer (LNcap) and human colon cancer (DLD-1).

[2] = test system: human esophageal carcinoma (TT); assay: as above; conditions: 72 hours cultivation, read-out: Concentration of test compound to inhibit the proliferation of cancer cells by 50 %
Procedure: as §1, §2

[3] = test system: human mastocarcinoma (MCF7); assay: as above; conditions: 72 hours cultivation, read-out: Concentration of test compound to inhibit the proliferation of cancer cells by 50 %
Procedure: as §1, §2

[4] = test system: human pudendal squamous cell carcinoma (A431); assay: as above; conditions: A-431, 72 hours cultivation, read-out: Concentration of test compound to inhibit the proliferation of cancer cells by 50 %
Procedure: as §1, §2

[5] = test system: human prostatic cancer (LNcap); assay: Inhibition of proliferation of cancer cells in culture (Test Examples 1 and 3)
Procedure: as §1, §2
(§3) The test method and the nature of cancer cells to be tested are the same as those in Test Example 1 given hereinbefore. In this Test Example 3, however, eight kinds of cancer cells indicated in Table 3 below are used, among the twelve kinds of cancer cells which were used in Test Example 1.
(§4) As the test results of measurement, the evaluated values of the concentration of each test compound which could inhibit the proliferation of cancer cells by 50 % (namely, 50 % inhibitory concentration:IC50, µg/ml) are given in Table 3.

[6] = test system: human acute promyeloleukemia (HL60); assay: as above
Procedure: as §1, §2, §3, §4

[7] = test system: human cervical cancer (HeLa); assay: as above
Procedure: as §1, §2, §3, §4

[8] = test system: human prostatic cancer (PC3); assay: as above; conditions: for IC50: Homo sapiens; for anticancer activities against PC3, times higher than those of adriamycin: Test Example 1, relative to adriamycin
Procedure: as §1, §2, §3, §4

[9] = test system: human colon cancer (DLD-1); assay: as above; conditions: for IC50: Homo sapiens; for anticancer activities against DLD-1, times higher than those of adriamycin: Test Example 1, relative to adriamycin
Procedure: as §1, §2, §3, §4

mouse lymphoma (L-1210) = assay: as above
Procedure: as §1, §2, §3, §4

[10] = test system: mouse colon cancer (colon 26); assay: as above
Procedure: as §1, §2, §3, §4

[11] = test system: mouse B-cell lymphoma (LB32T); assay: as above
Procedure: as §1, §2, §3, §4

[12] = LNcap, 72 hours cultivation, Test Example 1, read-out: Concentration of test compound to inhibit the proliferation of cancer cells by 50 %, IC50
[13] = HL-60, 72 hours cultivation, Test Example 1, read-out: Concentration of test compound to inhibit the proliferation of cancer cells by 50 %, IC50
[14] = 72 hours cultivation, Test Example 1, read-out: Concentration of test compound to inhibit the proliferation of cancer cells by 50 %, IC50
[15] = L1210, 72 hours cultivation, Test Example 1, read-out: Concentration of test compound to inhibit the proliferation of cancer cells by 50 %, IC50
[16] = colon26, 72 hours cultivation, Test Example 1, read-out: Concentration of test compound to inhibit the proliferation of cancer cells by 50 %, IC50
[17] = LNCap, Test Example 3, Compounds N to T used as trifluoroacetate, read-out: IC50
[18] = HL-60, Test Example 3, Compounds N to T used as trifluoroacetate, read-out: IC50
[19] = Test Example 3, Compounds N to T used as trifluoroacetate, read-out: IC50
[20] = L1210, Test Example 3, Compounds N to T used as trifluoroacetate, read-out: IC50
[21] = Colon26, Test Example 3, Compounds N to T used as trifluoroacetate, read-out: IC50
[22] = Test Example 3, relative to adriamycin

Compound	IC50 [1]	IC50 [2]	IC50 [3]	IC50 [4]	IC50 [5, 12]	IC50 [6, 13]	IC50 [7, 14]	IC50 [8, 14]	IC50 [9, 14]	anticancer activities against DLD-1, times higher than those of adriamycin [9]	anticancer activities against PC3, times higher than those of adriamycin [8]	IC50 [5, 17]	IC50 [6, 18]	IC50 [7, 19]	IC50 (mouse lymphoma (L-1210); [20])	IC50 [10, 21]	IC50 [8, 19]	IC50 [9, 19]	IC50 [11, 19]	also measured
CO[C@H]1[C@H](Oc2c(O)c3c(c4cccnc24)C(=O)c2ccccc2C3=O)O[C@@H](C)[C@@H](O)[C@H]1O [Compound B, 5-(6-deoxy-2-O-methyl-α-L-talopyranosyloxy)-6-hydroxynaphtho[2,3-f]quinoline-7,12-dione]	4.15 µg/mL (≈ 9.19 µM)	3.46 µg/mL (≈ 7.66 µM)	2.59 µg/mL (≈ 5.74 µM)	3.33 µg/mL (≈ 7.38 µM)	1.54 µg/mL (≈ 3.41 µM)	1.51 µg/mL (≈ 3.34 µM)	1.65 µg/mL (≈ 3.66 µM)	1.59 µg/mL (≈ 3.52 µM)	1.13 µg/mL (≈ 2.5 µM)	1.7 times	–	–	–	–	–	–	–	–	–	–
C[C@@H]1O[C@@H](Oc2c(O)c3c(c4cccnc24)C(=O)c2ccccc2C3=O)[C@@H](F)[C@H](O)[C@@H]1O [Compound D, 5-(2,6-dideoxy-2-fluoro-α-L-galactopyranosyloxy)-6-hydroxynaphtho[2,3-f]quinoline-7,12-dione]	1.06 µg/mL (≈ 2.41 µM)	1.18 µg/mL (≈ 2.69 µM)	1.24 µg/mL (≈ 2.82 µM)	1.26 µg/mL (≈ 2.87 µM)	0.31 µg/mL (≈ 0.706 µM)	0.35 µg/mL (≈ 0.797 µM)	0.45 µg/mL (≈ 1.02 µM)	0.11 µg/mL (≈ 0.25 µM)	0.12 µg/mL (≈ 0.273 µM)	16 times	8.2 times	–	–	–	–	–	–	–	–	IC50 (mouse lymphoma (L-1210); [15]): 0.47 µg/mL (≈ 1.07 µM); IC50 [10, 16]: 0.2 µg/mL (≈ 0.455 µM); IC50 [11, 14]: 0.3 µg/mL (≈ 0.683 µM)
C[C@@H]1O[C@H](Oc2c(O)c3c(c4cccnc24)C(=O)c2ccccc2C3=O)[C@@H](F)[C@H](O)[C@@H]1O [Compound E, 5-(2,6-dideoxy-2-fluoro-β-L-galactopyranosyloxy)-6-hydroxynaphtho[2,3-f]quinoline-7,12-dione]	1.08 µg/mL (≈ 2.46 µM)	1.12 µg/mL (≈ 2.55 µM)	1.26 µg/mL (≈ 2.87 µM)	1.11 µg/mL (≈ 2.53 µM)	0.1 µg/mL (≈ 0.228 µM)	0.33 µg/mL (≈ 0.751 µM)	0.16 µg/mL (≈ 0.364 µM)	0.08 µg/mL (≈ 0.182 µM)	0.04 µg/mL (≈ 0.091 µM)	–	11 times	–	–	–	–	–	–	–	–	IC50 (mouse lymphoma (L-1210); [15]): 0.54 µg/mL (≈ 1.23 µM); IC50 [10, 16]: 0.23 µg/mL (≈ 0.523 µM); IC50 [11, 14]: 0.26 µg/mL (≈ 0.592 µM)
C[C@@H]1O[C@@H](Oc2c(O)c3c(c4cccnc24)C(=O)c2ccccc2C3=O)[C@H](F)[C@H](O)[C@H]1N [Compound F, 5-(4-amino-2,4,6-trideoxy-2-fluoro-α-L-mannopyranosyloxy)-6-hydroxynaphtho[2,3-f]quinoline-7,12-dione]	2.92 µg/mL (≈ 6.66 µM)	3.48 µg/mL (≈ 7.94 µM)	2.46 µg/mL (≈ 5.61 µM)	2.25 µg/mL (≈ 5.13 µM)	0.67 µg/mL (≈ 1.53 µM)	0.11 µg/mL (≈ 0.251 µM)	0.34 µg/mL (≈ 0.776 µM)	0.35 µg/mL (≈ 0.798 µM)	0.17 µg/mL (≈ 0.388 µM)	11 times	2.6 times	–	–	–	–	–	–	–	–	–
C[C@@H]1O[C@@H](Oc2c(O)c3c(c4cccnc24)C(=O)c2ccccc2C3=O)[C@H](F)[C@H](OC(=O)CCN)[C@@H]1OC(=O)CCN [Compound P, 5-[3,4-di-O-(3-aminopropionyl)-2,6-dideoxy-2-fluoro-α-L-talopyranosyloxy]-6-hydroxynaphtho [2,3-f]quinoline-7,12-dione]	–	–	–	–	–	–	–	–	–	–	–	1.46 µg/mL (≈ 2.51 µM)	0.6 µg/mL (≈ 1.03 µM)	0.89 µg/mL (≈ 1.53 µM)	1.27 µg/mL (≈ 2.18 µM)	0.91 µg/mL (≈ 1.56 µM)	0.55 µg/mL (≈ 0.946 µM)	0.46 µg/mL (≈ 0.791 µM)	0.82 µg/mL (≈ 1.41 µM)	–
C[C@@H]1O[C@@H](Oc2c(O)c3c(c4cccnc24)C(=O)c2ccccc2C3=O)[C@@H](F)[C@H](OC(=O)CCN)[C@@H]1OC(=O)CCN [Compound Q, 5-[3,4-di-O-(3-aminopropionyl)-2,6-dideoxy-2-fluoro-α-L-galactopyranosyloxy]-6-hydroxynaphtho [2,3-f]quinoline-7,12-dione]	–	–	–	–	–	–	–	–	–	–	–	1.54 µg/mL (≈ 2.65 µM)	1.09 µg/mL (≈ 1.87 µM)	1.7 µg/mL (≈ 2.92 µM)	2.09 µg/mL (≈ 3.59 µM)	1.43 µg/mL (≈ 2.46 µM)	0.79 µg/mL (≈ 1.36 µM)	0.71 µg/mL (≈ 1.22 µM)	0.78 µg/mL (≈ 1.34 µM)	–
C[C@@H]1O[C@H](Oc2c(O)c3c(c4cccnc24)C(=O)c2ccccc2C3=O)[C@@H](F)[C@H](OC(=O)CCN)[C@@H]1O [Compound R, 5-[3-O-(3-aminopropionyl)-2,6-dideoxy-2-fluoro-β-L-galactopyranosyloxy]-6-hydroxynaphtho [2,3-f]quinoline-7,12-dione]	–	–	–	–	–	–	–	–	–	–	–	0.47 µg/mL (≈ 0.921 µM)	0.54 µg/mL (≈ 1.06 µM)	0.29 µg/mL (≈ 0.568 µM)	0.72 µg/mL (≈ 1.41 µM)	0.46 µg/mL (≈ 0.901 µM)	0.39 µg/mL (≈ 0.764 µM)	0.18 µg/mL (≈ 0.353 µM)	0.68 µg/mL (≈ 1.33 µM)	anticancer activity against PC3, times higher than that of adriamycin [8, 22]: 2.9 times; anticancer activity against DLD-1, times higher than that of adriamycin [9, 22]: 19 times
C[C@@H]1O[C@H](Oc2c(O)c3c(c4cccnc24)C(=O)c2ccccc2C3=O)[C@@H](F)[C@H](OC(=O)CCN)[C@@H]1OC(=O)CCN [Compound S, 5-[3,4-di-O-(3-aminopropionyl)-2,6-dideoxy-2-fluoro-β-L-galactopyranosyloxy]-6-hydroxynaphtho[2,3-f] quinoline-7,12-dione]	–	–	–	–	–	–	–	–	–	–	–	0.52 µg/mL (≈ 0.894 µM)	0.68 µg/mL (≈ 1.17 µM)	0.64 µg/mL (≈ 1.1 µM)	1.13 µg/mL (≈ 1.94 µM)	0.65 µg/mL (≈ 1.12 µM)	0.55 µg/mL (≈ 0.946 µM)	0.42 µg/mL (≈ 0.722 µM)	0.79 µg/mL (≈ 1.36 µM)	–
C[C@@H]1O[C@H](Oc2c(OC(=O)CCN)c3c(c4cccnc24)C(=O)c2ccccc2C3=O)[C@@H](F)[C@H](OC(=O)CCN)[C@@H]1OC(=O)CCN [Compound T, 5-[3,4-di-O-(3-aminopropionyl)-2,6-dideoxy-2-fluoro-β-L-galactopyranosyloxy)-6-(3-aminopropionyloxy)-naphtho[2,3-f]quinoline-7,12-dione]	–	–	–	–	–	–	–	–	–	–	–	0.57 µg/mL (≈ 0.873 µM)	0.78 µg/mL (≈ 1.2 µM)	0.15 µg/mL (≈ 0.23 µM)	1.17 µg/mL (≈ 1.79 µM)	0.55 µg/mL (≈ 0.843 µM)	0.65 µg/mL (≈ 0.996 µM)	0.45 µg/mL (≈ 0.69 µM)	0.8 µg/mL (≈ 1.23 µM)	–
